Source: the supplement of paper PMC11208160

Experiment: recombinant UMI read abundance after kanamycin selection (control-corrected) (log10(CPM+1)); higher = more efficient recombination; extreme values may be limits of the assay; sequences stand for … in AGTGCAGAGAAAATCGGCCAGTTTTCTCTGCCTGCAGTCCGCATGCCGTGGGACCCCTTGGGTTCTAACCTGTTGCCTAGATTTATGCAGCGGACTGCCTTTCTCCCAAAGTGATAAACCGG…AGGTTGGTTTCACT; site = the 11-nt donor
In short: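 Under IPTG (0.07 mM) plus kanamycin, or without selection, Escherichia coli carrying a UMI-tagged donor and donor-binding-loop pair library and a target plasmid for the IS621 bridge recombinase were plated in two replicates. Recombinant UMIs were PCR-amplified across the donor–target junction and sequenced. Counts were converted to CPM, averaged over replicates, scaled by control-derived factors and reported as log10(CPM+1).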
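Also: IS621 bridge recombinase in Escherichia coli cells against a fixed T5 target plasmid.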

| Sequence | recombinant UMI read abundance (log10) |
| --- | --- |
| GTCCCCGCATGGACCGGTTTTCCCGGTAATCCGTATTTGAG (site GTCCCCGCTCT) | 0.468 |
| GTCCCGTCATGGACCGGTTTTCCCGGTAATCCGTATTTGGT (site GTCCCGTCTAC) | 0.849 |
| GTCGACCCATGGACCGGTTTTCCCGGTAATCCGTATTTGAG (site GTCGACCCTCT) | 0.0157 |
| GTCGGTCCATGGACCGGTTTTCCCGGTAATCCGTATTTGTA (site GTCGGTCCTTA) | 0.0236 |
| GTCGTTCCATGGACCGGTTTTCCCGGTAATCCGTATTTGGT (site GTAGTTCCTAC) | 0 |
| GTCGTTCCATGGACCGGTTTTCCCGGTAATCCGTATTTGGT (site GTCGTTCCTAC) | 0.0042 |
| GTCGTTCCATGGACCGGTTTTCCCGGTAATCCGTATTTGGT (site GTGGTTCCTAC) | 0.0048 |
| GTCGTTCCATGGACCGGTTTTCCCGGTAATCCGTATTTGGT (site GTTGTTCCTAC) | 0.00325 |
| GTCTGACCATGGACCGGTTTTCCCGGTAATCCGTATTTGAG (site CAGGCTGCTTA) | 0.0145 |
| GTCTGCCCATGGACCGGTTTTCCCGGTAATCCGTATTTGAG (site GTCTGCCCTCT) | 0.0162 |
| GTCTTACCATGGACCGGTTTTCCCGGTAATCCGTATTTGCC (site GTCTTACCTGG) | 0 |
| GTCTTGACATGGACCGGTTTTCCCGGTAATCCGTATTTGTG (site GTCTTGACTCA) | 0.296 |
| GTCTTGTCATGGACCGGTTTTCCCGGTAATCCGTATTTGTC (site GTCTTGTCTGA) | 1.66 |
| GTGACGCCATGGACCGGTTTTCCCGGTAATCCGTATTTGAA (site GTGACGCCTTT) | 0.0255 |
| GTGAGCGCATGGACCGGTTTTCCCGGTAATCCGTATTTGAG (site GTGAGCGCTCT) | 1.68 |
| GTGCAGGCATGGACCGGTTTTCCCGGTAATCCGTATTTGGT (site GTGCAAGCTAC) | 1.77 |
| GTGCAGGCATGGACCGGTTTTCCCGGTAATCCGTATTTGGT (site GTGCACGCTAC) | 0.00349 |
| GTGCAGGCATGGACCGGTTTTCCCGGTAATCCGTATTTGGT (site GTGCAGGCTAC) | 0.659 |
| GTGCAGGCATGGACCGGTTTTCCCGGTAATCCGTATTTGGT (site GTGCATGCTAC) | 0.279 |
| GTGCAGGCATGGACCGGTTTTCCCGGTAATCCGTATTTGTG (site GTGAAGGCTCA) | 1.5 |
| GTGCAGGCATGGACCGGTTTTCCCGGTAATCCGTATTTGTG (site GTGCAGGCTCA) | 1.17 |
| GTGCAGGCATGGACCGGTTTTCCCGGTAATCCGTATTTGTG (site GTGGAGGCTCA) | 0.393 |
| GTGCAGGCATGGACCGGTTTTCCCGGTAATCCGTATTTGTG (site GTGTAGGCTCA) | 0.475 |
| GTGCATACATGGACCGGTTTTCCCGGTAATCCGTATTTGGT (site GTGCATACTAC) | 1.51 |
| GTGCATACATGGACCGGTTTTCCCGGTAATCCGTATTTGGT (site GTGCATCCTAC) | 0.00833 |

| Sequence | recombinant UMI read abundance (log10) |
| --- | --- |
| GTGCATACATGGACCGGTTTTCCCGGTAATCCGTATTTGGT (site GTGCATGCTAC) | 0.555 |
| GTGCATACATGGACCGGTTTTCCCGGTAATCCGTATTTGGT (site GTGCATTCTAC) | 0.00888 |
| GTGCATGCATGGACCGGTTTTCCCGGTAATCCGTATTTGCT (site GTGCATGCTAA) | 0.00274 |
| GTGCATGCATGGACCGGTTTTCCCGGTAATCCGTATTTGCT (site GTGCATGCTAC) | 0 |
| GTGCATGCATGGACCGGTTTTCCCGGTAATCCGTATTTGCT (site GTGCATGCTAG) | 2.86 |
| GTGCATGCATGGACCGGTTTTCCCGGTAATCCGTATTTGCT (site GTGCATGCTAT) | 0.999 |
| GTGCCGACATGGACCGGTTTTCCCGGTAATCCGTATTTGAC (site GTGCCGACTGT) | 2.4 |
| GTGCGTGCATGGACCGGTTTTCCCGGTAATCCGTATTTGGT (site GTGCATGCTAC) | 0.26 |
| GTGCGTGCATGGACCGGTTTTCCCGGTAATCCGTATTTGGT (site GTGCCTGCTAC) | 0.00736 |
| GTGCGTGCATGGACCGGTTTTCCCGGTAATCCGTATTTGGT (site GTGCGTGCTAC) | 0.346 |
| GTGCGTGCATGGACCGGTTTTCCCGGTAATCCGTATTTGGT (site GTGCTTGCTAC) | 0.00274 |
| GTGCTCCCATGGACCGGTTTTCCCGGTAATCCGTATTTGAC (site GTGCTCCCTGT) | 1.9 |
| GTGGACGCATGGACCGGTTTTCCCGGTAATCCGTATTTGAG (site GTGGACGCTCT) | 1.56 |
| GTGGACGCATGGACCGGTTTTCCCGGTAATCCGTATTTGTG (site GTGGAAGCTCA) | 1.41 |
| GTGGACGCATGGACCGGTTTTCCCGGTAATCCGTATTTGTG (site GTGGACGCTCA) | 1.56 |
| GTGGACGCATGGACCGGTTTTCCCGGTAATCCGTATTTGTG (site GTGGAGGCTCA) | 0.0785 |
| GTGGACGCATGGACCGGTTTTCCCGGTAATCCGTATTTGTG (site GTGGATGCTCA) | 0.653 |
| GTGGAGACATGGACCGGTTTTCCCGGTAATCCGTATTTGTG (site GTGGAGACTCA) | 1.59 |
| GTGGAGACATGGACCGGTTTTCCCGGTAATCCGTATTTGTG (site GTGGAGCCTCA) | 0.0116 |
| GTGGAGACATGGACCGGTTTTCCCGGTAATCCGTATTTGTG (site GTGGAGGCTCA) | 1.4 |
| GTGGAGACATGGACCGGTTTTCCCGGTAATCCGTATTTGTG (site GTGGAGTCTCA) | 1.99 |
| GTGGAGCCATGGACCGGTTTTCCCGGTAATCCGTATTTGTG (site GTGGAGACTCA) | 0.00935 |
| GTGGAGCCATGGACCGGTTTTCCCGGTAATCCGTATTTGTG (site GTGGAGCCTCA) | 0.484 |
| GTGGAGCCATGGACCGGTTTTCCCGGTAATCCGTATTTGTG (site GTGGAGGCTCA) | 0.00706 |
| GTGGAGCCATGGACCGGTTTTCCCGGTAATCCGTATTTGTG (site GTGGAGTCTCA) | 1.74 |

| Sequence | recombinant UMI read abundance (log10) |
| --- | --- |
| GTGGAGGCATGGACCGGTTTTCCCGGTAATCCGTATTTGAG (site GTGGAGGCTCA) | 0.00393 |
| GTGGAGGCATGGACCGGTTTTCCCGGTAATCCGTATTTGAG (site GTGGAGGCTCC) | 0.297 |
| GTGGAGGCATGGACCGGTTTTCCCGGTAATCCGTATTTGAG (site GTGGAGGCTCG) | 0.681 |
| GTGGAGGCATGGACCGGTTTTCCCGGTAATCCGTATTTGAG (site GTGGAGGCTCT) | 1.57 |
| GTGGAGGCATGGACCGGTTTTCCCGGTAATCCGTATTTGGG (site GTGGAGGCTCA) | 0.238 |
| GTGGAGGCATGGACCGGTTTTCCCGGTAATCCGTATTTGGG (site GTGGAGGCTCC) | 0.954 |
| GTGGAGGCATGGACCGGTTTTCCCGGTAATCCGTATTTGGG (site GTGGAGGCTCG) | 0.597 |
| GTGGAGGCATGGACCGGTTTTCCCGGTAATCCGTATTTGGG (site GTGGAGGCTCT) | 0.567 |
| GTGGAGGCATGGACCGGTTTTCCCGGTAATCCGTATTTGTA (site GTGGAGGCTAA) | 0.557 |
| GTGGAGGCATGGACCGGTTTTCCCGGTAATCCGTATTTGTA (site GTGGAGGCTCA) | 0.682 |
| GTGGAGGCATGGACCGGTTTTCCCGGTAATCCGTATTTGTA (site GTGGAGGCTGA) | 0.943 |
| GTGGAGGCATGGACCGGTTTTCCCGGTAATCCGTATTTGTA (site GTGGAGGCTTA) | 2.86 |
| GTGGATACATGGACCGGTTTTCCCGGTAATCCGTATTTGCA (site GTGGATACTTG) | 1.84 |
| GTGGCCTCATGGACCGGTTTTCCCGGTAATCCGTATTTGGA (site GTGGCCTCTTC) | 1.43 |
| GTGGCTGCATGGACCGGTTTTCCCGGTAATCCGTATTTGCC (site GTGGCTGCTGG) | 2.44 |
| GTGGGCGCATGGACCGGTTTTCCCGGTAATCCGTATTTGAC (site GTGGGCGCTGT) | 2.43 |
| GTGGGTACATGGACCGGTTTTCCCGGTAATCCGTATTTGTG (site GTGGGTACTCA) | 1.46 |
| GTGGGTTCATGGACCGGTTTTCCCGGTAATCCGTATTTGGC (site GTGGGTTCTGC) | 2.19 |
| GTGGTCGCATGGACCGGTTTTCCCGGTAATCCGTATTTGCG (site GTAGTCGCTCG) | 0.519 |
| GTGGTCGCATGGACCGGTTTTCCCGGTAATCCGTATTTGCG (site GTCGTCGCTCG) | 0.0116 |
| GTGGTCGCATGGACCGGTTTTCCCGGTAATCCGTATTTGCG (site GTGGTCGCTCG) | 1.15 |
| GTGGTCGCATGGACCGGTTTTCCCGGTAATCCGTATTTGCG (site GTTGTCGCTCG) | 0.00973 |
| GTGTAAACATGGACCGGTTTTCCCGGTAATCCGTATTTGCT (site GTGTAAACTAG) | 2.89 |
| GTGTATACATGGACCGGTTTTCCCGGTAATCCGTATTTGCT (site GTGTATACTAG) | 2.44 |
| GTGTCCCCATGGACCGGTTTTCCCGGTAATCCGTATTTGGA (site GTGTCCCCTTC) | 0.0113 |
